# Test results from patent US6395773B1, “Anti-drug resistant strain agents and antichlamydia agents” (Japan Science and Technology Corporation, priority 1999, dated 2002).
# Tests used:
# [1] = test system: methicillin-resistant Staphylococcus aureus (MRSA); experiment: Effect on decreasing antibiotic resistance by concomitant use of FNQ3, MRSA; settings: for MIC: Staphylococcus aureus, 24 h, read-out: MIC of antibiotic, −FNQ3; for MIC of antibiotic, +FNQ3: concomitant FNQ3, final concentration 0.5 μg/ml; for decrease of the resistance of MRSA against the antibiotic (fraction of MIC): with the Compound (FNQ3) 0.5 μg/ml
# [2] = test system: methicillin-sensitive Staphylococcus aureus (MSSA); experiment: Effect on decreasing antibiotic resistance by concomitant use of FNQ3, MSSA; settings: for MIC: Staphylococcus aureus, 24 h, read-out: MIC of antibiotic, −FNQ3; for MIC of antibiotic, +FNQ3: concomitant FNQ3, final concentration 0.5 μg/ml
# C. psittaci = experiment: microbe, parasite or virus in culture; type: cell-based; settings: Chlamydia psittaci, strain Cal 10
# C. pneumoniae = experiment: microbe, parasite or virus in culture; type: cell-based; settings: Chlamydia pneumoniae
# [3] = test system: all tested strains of Chlamydia; type: cell-based; settings: tendency; McCoy and WI38 versus HeLa229
# C. trachomatis = experiment: microbe, parasite or virus in culture; type: cell-based; settings: Chlamydia trachomatis
# Staphylococcus aureus = experiment: FNQ3 alone, growth of Staphylococcus aureus; settings: 0.5 μg/ml
# [4] = test system: methicillin-resistant Staphylococcus aureus (MRSA); experiment: Proliferation inhibitory test for Staphylococcus aureus (agar medium MIC), MRSA; settings: for MIC: Staphylococcus aureus, MRSA
# [5] = test system: fluconazole-resistant Candida albicans (FRCA); experiment: Proliferation inhibitory test for Candida albicans (agar medium MIC), FRCA; settings: for MIC: Candida albicans
# [6] = test system: fluconazole-sensitive Candida albicans (FSCA); experiment: Proliferation inhibitory test for Candida albicans (agar medium MIC), FSCA
# [7] = test system: methicillin-sensitive Staphylococcus aureus (MSSA); experiment: Proliferation inhibitory test for Staphylococcus aureus (agar medium MIC), MSSA; settings: for MIC: Staphylococcus aureus, MSSA
compound,measurement,setting,value
CN(C)CCn1nnnc1SCC1=C(C(=O)O)N2C(=O)[C@@H](NC(=O)Cc3csc(N)n3)[C@H]2SC1 [Cefotiam],MIC,[1],32 µg/mL
same,"MIC of antibiotic, +FNQ3",[1],16 to 32 µg/mL
same,MIC,[2],0.25 to 0.5 µg/mL
same,"MIC of antibiotic, +FNQ3",[2],0.25 µg/mL
CC[C@H]1OC(=O)[C@H](C)[C@@H](O[C@H]2C[C@@](C)(OC)[C@@H](O)[C@H](C)O2)[C@H](C)[C@@H](O[C@@H]2O[C@H](C)C[C@H](N(C)C)[C@H]2O)[C@](C)(O)C[C@@H](C)/C(=N\OCOCCOC)[C@H](C)[C@@H](O)[C@]1(C)O [Roxithromycin],MIC,[1],16 µg/mL
same,"MIC of antibiotic, +FNQ3",[1],16 µg/mL
same,MIC,[2],1 µg/mL
same,"MIC of antibiotic, +FNQ3",[2],1 µg/mL
"Cc1cc2c(o1)C(=O)c1ccccc1C2=O [FNQ3, 2-methylnaphtho[2,3-b]furan-4,9-dione]",MIC,C. psittaci; HeLa229 cells,1 µg/mL
same,MIC,C. psittaci; McCoy cells,0.5 µg/mL
same,MIC,C. psittaci; WI 38 cells,0.25 µg/mL
same,MIC,"C. pneumoniae; strain KKpn-1, HeLa229 cells",0.25 µg/mL
same,MIC,"C. pneumoniae; strain KKpn-1, McCoy cells",0.25 µg/mL
same,MIC,"C. pneumoniae; strain TW-183, HeLa229 cells",0.6 µg/mL
same,MIC with McCoy and WI38 cells relative to HeLa229 cells,[3],approximately ½
same,MIC,"C. trachomatis; strain D, HeLa229 cells",1 µg/mL
same,MIC,"C. trachomatis; strain F, HeLa229 cells",1 µg/mL
same,MIC,"C. trachomatis; strain L2, HeLa229 cells",1 µg/mL
same,MIC,"C. trachomatis; strain L2, McCoy cells",0.6 µg/mL
same,MIC,"C. trachomatis; strain L2, WI 38 cells",0.5 µg/mL
same,influence on the growth of Staphylococcus aureus,Staphylococcus aureus,no influence on the growth
"Cc1cc2c(o1)C(=O)c1c(O)cccc1C2=O [FNQ13, 8-hydroxy-2-methylnaphtho[2,3-b]furan-4,9-dione]",MIC,[4]; MRSA strain 1 (Patient),6.25 µg/mL
same,MIC,[4]; MRSA strain 2 (Patient),3.13 µg/mL
same,MIC,[4]; MRSA strain 3 (Patient),3.13 µg/mL
same,MIC,[4]; MRSA strain 4 (Patient),12.5 µg/mL
same,MIC,[4]; MRSA strain 5 (Patient),12.5 µg/mL
same,MIC,[4]; MRSA strain 6 (Patient),3.13 µg/mL
same,MIC,[4]; MRSA strain 7 (Patient),6.25 µg/mL
same,MIC,[4]; MRSA strain 8 (Patient),3.13 µg/mL
same,MIC,[4]; MRSA strain 9 (Patient),6.25 µg/mL
same,MIC,[4]; MRSA strain 10 (Patient),3.13 µg/mL
same,MIC,[4]; MRSA strain 11 (Patient),6.25 µg/mL
same,MIC,[4]; MRSA strain 12 (N133),1.56 µg/mL
same,MIC,[4]; MRSA strain 13 (OF4),1.56 µg/mL
same,MIC,[4]; MRSA strain 14 (N295),6.25 µg/mL
same,MIC,"[4]; read-out: MIC, Mean ± standard deviation, mean over 14 MRSA strains",5.36 µg/mL
same,"MIC, Mean ± standard deviation",[4]; mean over 14 MRSA strains,5.36 ± 3.5 µg/mL
same,MIC,[5]; FRCA strain CA383,2 µg/mL
same,MIC,[5]; FRCA strain CA8941,8 µg/mL
same,MIC,[5]; FRCA strain DUNC136,4 µg/mL
same,MIC,[5]; FRCA strain MCV7,2 µg/mL
same,MIC,[5]; FRCA strain S78941,4 µg/mL
same,MIC,[5]; FRCA strain T77042,2 µg/mL
same,antibacterial activity against FRCA compared with FSCA,[5]; FRCA (resistant strain) versus FSCA (sensitive strain),same degree of antibacterial activity
same,MIC,[6]; Candida albicans,4 µg/mL
same,MIC,"[6]; Candida albicans, TIMM0239",2 µg/mL
same,MIC,"[6]; Candida albicans, TIMM1756",2 µg/mL
same,MIC,"[6]; Candida albicans, TIMM1850",2 µg/mL
same,MIC,[6]; FSCA strain TA,4 µg/mL
same,MIC,[7]; MSSA strain 1 (Patient),25 µg/mL
same,MIC,[7]; MSSA strain 2 (Patient),6.25 µg/mL
same,MIC,[7]; MSSA strain 3 (Patient),12.5 µg/mL
same,MIC,[7]; MSSA strain 4 (Patient),12.5 µg/mL
same,MIC,[7]; MSSA strain 5 (Patient),12.5 µg/mL
same,MIC,[7]; MSSA strain 6 (Patient),6.25 µg/mL
same,MIC,[7]; MSSA strain 7 (Patient),6.25 µg/mL
same,MIC,[7]; MSSA strain 8 (Patient),12.5 µg/mL
same,MIC,[7]; MSSA strain 9 (Patient),12.5 µg/mL
same,MIC,[7]; MSSA strain 10 (Patient),12.5 µg/mL
same,MIC,[7]; MSSA strain 11 (Patient),12.5 µg/mL
same,MIC,[7]; MSSA strain 12 (1840),12.5 µg/mL
same,MIC,"[7]; read-out: MIC, Mean ± standard deviation, mean over 12 MSSA strains, p < 0.01",12 µg/mL
same,"MIC, Mean ± standard deviation","[7]; mean over 12 MSSA strains, p < 0.01",11.98 ± 4.9 µg/mL
"OC(Cn1cncn1)(Cn1cncn1)c1ccc(F)cc1F [FLCZ, fluconazole, reference compound]",MIC,[5]; FRCA strain CA383,> 64 µg/mL
same,MIC,[5]; FRCA strain CA8941,> 64 µg/mL
same,MIC,[5]; FRCA strain DUNC136,> 64 µg/mL
same,MIC,[5]; FRCA strain MCV7,32 µg/mL
same,MIC,[5]; FRCA strain S78941,> 64 µg/mL
same,MIC,[5]; FRCA strain T77042,> 64 µg/mL
same,MIC,[6]; Candida albicans,0.03 µg/mL
same,MIC,"[6]; Candida albicans, TIMM0239",0.13 µg/mL
same,MIC,"[6]; Candida albicans, TIMM1756",0.06 µg/mL
same,MIC,"[6]; Candida albicans, TIMM1850",0.06 µg/mL
same,MIC,[6]; FSCA strain TA,0.03 µg/mL
C[C@H]1COc2c(N3CCN(C)CC3)c(F)cc3c(=O)c(C(=O)O)cn1c23 [Levofloxacin],MIC,[1],8 µg/mL
same,"MIC of antibiotic, +FNQ3",[1],4 µg/mL
same,MIC,[2],0.25 µg/mL
same,"MIC of antibiotic, +FNQ3",[2],0.25 µg/mL
CN[C@H](CC(C)C)C(=O)N[C@H]1C(=O)N[C@@H](CC(N)=O)C(=O)N[C@H]2C(=O)N[C@H]3C(=O)N[C@H](C(=O)N[C@H](C(=O)O)c4cc(O)cc(O)c4-c4cc3ccc4O)[C@H](O)c3ccc(c(Cl)c3)Oc3cc2cc(c3O[C@@H]2O[C@H](CO)[C@@H](O)[C@H](O)[C@H]2O[C@H]2C[C@](C)(N)[C@H](O)[C@H](C)O2)Oc2ccc(cc2Cl)[C@H]1O [Vancomycin],MIC,[1],2.5 µg/mL
same,"MIC of antibiotic, +FNQ3",[1],0.6 to 1.25 µg/mL
same,decrease of the resistance of MRSA against the antibiotic (fraction of MIC),[1],½ to ¼
same,MIC,[2],0.6 µg/mL
same,"MIC of antibiotic, +FNQ3",[2],0.6 µg/mL
CN(C)c1ccc(O)c2c1C[C@H]1C[C@H]3[C@H](N(C)C)C(O)=C(C(N)=O)C(=O)[C@@]3(O)C(O)=C1C2=O [Minacycline],MIC,[1],8 µg/mL
same,"MIC of antibiotic, +FNQ3",[1],2 to 4 µg/mL
same,MIC,[2],0.25 µg/mL
same,"MIC of antibiotic, +FNQ3",[2],0.25 µg/mL
N[C@@H](C(=O)N[C@@H]1C(=O)N2C(C(=O)O)=C(Cl)CS[C@H]12)c1ccccc1 [cefaclor],MIC,[1],64 µg/mL
same,"MIC of antibiotic, +FNQ3",[1],16 µg/mL
same,decrease of the resistance of MRSA against the antibiotic (fraction of MIC),[1],½ to ¼
same,MIC,[2],1 µg/mL
same,"MIC of antibiotic, +FNQ3",[2],1 µg/mL
CC1(C)S[C@@H]2[C@H](NC(=O)[C@H](N)c3ccccc3)C(=O)N2[C@H]1C(=O)O [Ampicillin],MIC,[1],32 µg/mL
same,"MIC of antibiotic, +FNQ3",[1],4 µg/mL
same,decrease of the resistance of MRSA against the antibiotic (fraction of MIC),[1],½ to ¼
same,MIC,[2],32 µg/mL
same,"MIC of antibiotic, +FNQ3",[2],16 to 32 µg/mL
CC[C@H]1OC(=O)[C@H](C)[C@@H](O[C@H]2C[C@@](C)(OC)[C@@H](O)[C@H](C)O2)[C@H](C)[C@@H](O[C@@H]2O[C@H](C)C[C@H](N(C)C)[C@H]2O)[C@](C)(OC)C[C@@H](C)C(=O)[C@H](C)[C@@H](O)[C@]1(C)O [Clarithromycin],MIC,[1],16 µg/mL
same,"MIC of antibiotic, +FNQ3",[1],16 µg/mL
same,MIC,[2],0.5 µg/mL
same,"MIC of antibiotic, +FNQ3",[2],0.5 to 1 µg/mL
